Measured values from patent US12291528B2, “Crystalline imidazo[4,5-b]pyridine compound, pharmaceutical compositions, and their use in treating medical conditions” (Genzyme Corporation, priority 2021, dated 2025).
Like-named read-outs stand apart in the source and are kept apart here. Each block holds one compound with its values, some of them ahead of it.

Columns and labels:
Dynamic vapor sorption = assay type: physicochemical; settings: 25° C., 2 cycles of increasing and decreasing relative humidity, steps of 5% RH
Method: A dynamic vapor sorption isotherm plot of crystalline 3-(3-methoxy-4-((4-methoxybenzyl)oxy)benzyl)-6-(1-methyl-1H-pyrazol-4-yl)-3H-imidazo[4,5-b]pyridin-2-amine monohydrate Form 3 is provided in FIG. 3. The dynamic vapor sorption isotherm plot results are from the procedure where after a drying stage at 0% relative humidity, compound sample was exposed to 2 cycles of increasing and decreasing relative humidity at 25° C., with steps of 5% relative humidity, where mass of the sample was recorded throughout the experiment.

[1] = Knee joint concentration and knee/plasma ratio after intra-articular administration to rats; assay type: in vivo, Sprague Dawley rats; settings: for knee concentration of compound (in words): 0.1 mg dose, 672 hours, majority of animals
Method: (§1) Male rats were administered one of the following Test Articles via intra-articular administration to the left knee joint and thereafter pharmacokinetic properties were monitored: crystalline 3-(3-methoxy-4-((4-methoxybenzyl)oxy)benzyl)-6-(1-methyl-1H-pyrazol-4-yl)-3H-imidazo[4,5-b]pyridin-2-amine monohydrate Form 3 (“Form 3 Compound”) or crystalline 3-(3-methoxy-4-((4-methoxybenzyl)oxy)benzyl)-6-(1-methyl-1H-pyrazol-4-yl)-3H-imidazo[4,5-b]pyridin-2-amine monohydrate Form 1 (“Form 1 Compound”).
(§2) Male Sprague Dawley rats were allocated into four groups, where each group contained 12 rats having a weight in the range of 250 g to 300 g and an age of 7 to 9 weeks. Test Article was administered in the form of a suspension via intra-articular injection to the left knee joint of the rats according to the experimental design set forth in Table 1 below.
(§3) Each Test Article contained the specified methoxy-4-((4-methoxybenzyl)oxy)benzyl)-6-(1-methyl-1H-pyrazol-4-yl)-3H-imidazo[4,5-b]pyridin-2-amine monohydrate compound suspended in vehicle. Vehicle was […], 4.5% sorbitol, in aqueous phosphate buffer at pH 7.4. Each Test Article in the form of a suspension contained 20 mg/mL methoxy-4-((4-methoxy-benzyl)oxy)benzyl)-6-(1-methyl-1H-pyrazol-4-yl)-3H-imidazo[4,5-b]pyridin-2-amine monohydrate in the specified crystalline form.
The left knee joint (without injuring the articular capsule) of the rats together with 5-10 mm of both tibia and femur was collected from the first 6 animals/group after sacrifice at the last blood collection time point at approximately 672 hours postdose. The harvested knee joint was weighed. The left knee joint (without injuring the articular capsule) of the rats together with 5-10 mm of both tibia and femur was collected from the second 6 animals/group after sacrifice at the last blood collection time point at approximately 1344 hours postdose. The harvested knee joint was weighed. Tissue samples were maintained on dry ice prior to storage at −60 to −80° C. The knee joint samples were pulverized, then extracted with acetonitrile/water to provide a solution that was analyzed by using liquid chromatograph-mass spectrometry to determine the amount of the compound methoxy-4-((4-methoxybenzyl)oxy)benzyl)-6-(1-methyl-1H-pyrazol-4-yl)-3H-imidazo[4,5-b]pyridin-2-amine.

[2] = Pharmacokinetic parameters in plasma after intra-articular administration to rats; assay type: in vivo, Sprague Dawley rats; settings: for Tmax / AUC0-inf / Cmax / AUC(0-t) / Ratio Result from Compound Form 3/Compound Form 1: AUC0-672 / Ratio Result from Compound Form 3/Compound Form 1: AUC0-1344 / Ratio Result from Compound Form 3/Compound Form 1: AUC0-inf / Ratio Result from Compound Form 3/Compound Form 1: Cmax / AUC0-672 / AUC0-1344: plasma; for Tmax / AUC0-inf / Cmax / AUC(0-t) / AUC0-672 / AUC0-1344: male rat; for Tmax: range printed in row below; for AUC0-inf / Cmax / AUC(0-t) / AUC0-672 / AUC0-1344: mean
Method: as §1, §2, §3
Blood samples were collected from the jugular vein of the rats via syringe and needle and transferred into tubes containing K3EDTA. Blood samples were collected from the first six animals/group at 2 minutes, 10 minutes, 1 hr, 4 hr, 12 hr, 72 hr, 336 hr, and 672 hr after administration of Test Article. Blood samples were collected from the second six animals/group at 5 minutes, 0.5 hr, 2 hr, 8 hr, 24 hr, 168 hr, 1008 hr, and 1344 hr after administration of Test Article. Following centrifugation of the blood samples, plasma was cooled using dry ice until it was subjected to analytical analysis using liquid chromatograph-mass spectrometry to determine the amount of the compound methoxy-4-((4-methoxybenzyl)oxy)benzyl)-6-(1-methyl-1H-pyrazol-4-yl)-3H-imidazo[4,5-b]pyridin-2-amine.

[3] = Comparison of stability: temperature of dehydration; assay type: physicochemical
Text: Stability of crystalline 3-(3-methoxy-4-((4-methoxybenzyl)oxy)benzyl)-6-(1-methyl-1H-pyrazol-4-yl)-3H-imidazo[4,5-b]pyridin-2-amine monohydrate Form 3 was compared to crystalline 3-(3-methoxy-4-((4-methoxybenzyl)oxy)benzyl)-6-(1-methyl-1H-pyrazol-4-yl)-3H-imidazo[4,5-b]pyridin-2-amine monohydrate Form 1. The physical property analyzed was temperature of dehydration. Crystalline 3-(3-methoxy-4-((4-methoxybenzyl)oxy)benzyl)-6-(1-methyl-1H-pyrazol-4-yl)-3H-imidazo[4,5-b]pyridin-2-amine monohydrate Form 1 is that described in international patent application publication WO 2016/100677.

[4] = Dialysis dissolution in simulated intra-articular fluid; assay type: physicochemical; settings: for average release rate: at the 7 day time point, PBS pH 7.4 with BSA, 37° C.; for average release rate / one-half dissolution time: listed as crystalline 3-(3-methoxy-4-(4-methoxybenzyl)oxy)benzyl)-6-(1-methyl-1H-pyrazol-, monohydrate; for one-half dissolution time: dialysis bag, BSA/sodium hyaluronate in PBS pH 7.4, 37° C., 20 RPM
Method: Dialysis dissolution of the following Test Compositions in simulated intra-articular fluid was analyzed: • Crystalline 3-(3-methoxy-4-((4-methoxybenzyl)oxy)benzyl)-6-(1-methyl-1H-pyrazol-4-yl)-3H-imidazo[4,5-b]pyridin-2-amine Monohydrate Form 3, and • Crystalline 3-(3-methoxy-4-((4-methoxybenzyl)oxy)benzyl)-6-(1-methyl-1H-pyrazol-4-yl)-3H-imidazo[4,5-b]pyridin-2-amine Monohydrate Form 1.
Procedurally, Test Composition was placed into a dialysis bag along with Medium A. The dialysis bag was then closed and placed into a closed bottle containing Medium B. Medium A and B were preheated to 37° C. before use in the experiment. The closed bottles were placed into a rotating mixer system operating at 20 RPM so as to avoid suspension sedimentation inside the dialysis bag. An aliquot of Medium B from the bottle was removed at the following time points and analyzed by high-performance liquid chromatography with UV detection to determine the amount of 3-(3-methoxy-4-((4-methoxybenzyl)oxy)benzyl)-6-(1-methyl-1H-pyrazol-4-yl)-3H-imidazo[4,5-b]pyridin-2-amine in Medium B due to dialysis dissolution of the Test Composition from Medium A through the dialysis bag to Medium B: 3 hr, 6 hr, 24 hr, 29 hr, 48 hr, 72 hr, 144 hr, 168 hr, 192 hr, 216 hr, and 240 hr. One Test Composition was analyzed at the 360 hour timepoint. Medium A was bovine serum albumin (BSA) at 40 g/L (+0.2 g/L sodium azide), sodium hyaluronate at 3 g/L in reconstituted phosphate buffer saline pH 7.4. Medium B was bovine serum albumin (BSA) at 40 g/L (+0.2 g/L sodium azide) in reconstituted phosphate buffer saline pH 7.4.

[5] = 0.1 mg/knee, 672 hr, monohydrate
[6] = 1 mg/knee, 1344 hr, monohydrate
[7] = 0.1 mg/knee intra-articular, monohydrate
[8] = 1 mg/knee intra-articular, monohydrate

hygroscopicity (dynamic vapor sorption isotherm) (Dynamic vapor sorption): not hygroscopic
Knee concentration: Ratio of Form 3 Compound/Form 1 Compound ([1]; 0.1 mg/knee, 672 hr): 5.62
Knee/plasma ratio: Ratio of Form 3 Compound/Form 1 Compound ([1]; 0.1 mg/knee, 672 hr): 0.733
Mean Knee Concentration of Compound [1, 5]: 4790 ng/g
Mean Knee/Plasma Concentration Ratio [1, 5]: 43100
Mean Knee/Plasma Concentration Ratio ([1]; 0.1 mg/knee, 1344 hr): 77400
Knee concentration: Ratio of Form 3 Compound/Form 1 Compound ([1]; 1 mg/knee, 672 hr): 5.40
Knee/plasma ratio: Ratio of Form 3 Compound/Form 1 Compound ([1]; 1 mg/knee, 672 hr): 2.64
Mean Knee Concentration of Compound ([1]; 1 mg/knee, 672 hr, monohydrate): 202000 ng/g
Mean Knee/Plasma Concentration Ratio ([1]; 1 mg/knee, 672 hr, monohydrate): 58300
Knee concentration: Ratio of Form 3 Compound/Form 1 Compound ([1]; 1 mg/knee, 1344 hr): 13.6
Knee/plasma ratio: Ratio of Form 3 Compound/Form 1 Compound ([1]; 1 mg/knee, 1344 hr): 1.96
Mean Knee Concentration of Compound [1, 6]: 62200 ng/g
Mean Knee/Plasma Concentration Ratio [1, 6]: 37200
concentration at 1344 hr ([1]; male, Sprague Dawley, rat, knee joint, other: intra-articular injection to the left knee joint, 0.1 mg/knee, 1344 hr, read-out: Mean Knee Concentration of Compound): 383 ng/g
Tmax ([2]; Sprague Dawley, 1 mg/knee intra-articular): 4 h
absorption compared to Form 1 Compound ([2]; intra-articular, rat): slower and more prolonged
AUC0-inf ([2]; male, Sprague Dawley, rat, 1 mg, 1 mg/knee intra-articular, read-out: AUC0-inf): 8040 ng·h/mL
Cmax ([2]; male, Sprague Dawley, rat, 1 mg, 1 mg/knee intra-articular, read-out: Cmax): 52.1 ng/mL
AUC(0-t) ([2]; male, Sprague Dawley, rat, 1 mg, 1 mg/knee intra-articular, summary from second six animals, read-out: AUC0-1344): 7100 ng·h/mL
Ratio Result from Compound Form 3/Compound Form 1: AUC0-672 ([2]; 0.1 mg/knee): 0.508
Ratio Result from Compound Form 3/Compound Form 1: AUC0-1344 ([2]; 0.1 mg/knee): 0.611
Ratio Result from Compound Form 3/Compound Form 1: AUC0-inf ([2]; 0.1 mg/knee): 0.587
Ratio Result from Compound Form 3/Compound Form 1: Cmax ([2]; 0.1 mg/knee): 0.332
Ratio Result from Compound Form 3/Compound Form 1: AUC0-672 ([2]; 1 mg/knee): 0.494
Ratio Result from Compound Form 3/Compound Form 1: AUC0-1344 ([2]; 1 mg/knee): 0.640
Ratio Result from Compound Form 3/Compound Form 1: AUC0-inf ([2]; 1 mg/knee): 0.681
Ratio Result from Compound Form 3/Compound Form 1: Cmax ([2]; 1 mg/knee): 0.728
AUC0-672 [2, 7]: 686 ng·h/mL
AUC0-inf [2, 7]: 757 ng·h/mL
Cmax [2, 7]: 11.4 ng/mL
AUC0-1344 ([2]; 0.1 mg/knee intra-articular, summary from second six animals, monohydrate): 813 ng·h/mL
AUC0-672 [2, 8]: 5240 ng·h/mL
thermodynamic stability compared to monohydrate Form 1 [3]: thermodynamically more stable
temperature of dehydration ([3]; heated): 130 °C
average release rate [4]: 0.35 %/hr
one-half dissolution time [4]: 112 h
dialysis dissolution rate compared to Form 1 ([4]; simulated intra-articular fluid): significantly lower
SMILES: COc1ccc(COc2ccc(Cn3c(N)nc4cc(-c5cnn(C)c5)cnc43)cc2OC)cc1 [Form 3 Compound, 3-(3-methoxy-4-((4-methoxybenzyl)oxy)benzyl)-6-(1-methyl-1H-pyrazol-4-yl)-3H-imidazo[4,5-b]pyridin-2-amine monohydrate]
knee concentration of compound (in words) ([1]; monohydrate): consistently higher than the concentration

Mean Knee Concentration of Compound [1, 5]: 852 ng/g
Mean Knee/Plasma Concentration Ratio [1, 5]: 58800
Mean Knee Concentration of Compound ([1]; 0.1 mg/knee, 1344 hr, monohydrate): <LLOQ
Mean Knee Concentration of Compound ([1]; 1 mg/knee, 672 hr, monohydrate): 37400 ng/g
Mean Knee/Plasma Concentration Ratio ([1]; 1 mg/knee, 672 hr, monohydrate): 22100
Mean Knee Concentration of Compound [1, 6]: 4560 ng/g
Mean Knee/Plasma Concentration Ratio [1, 6]: 19000
Tmax ([2]; Sprague Dawley, 0.1 mg/knee intra-articular): 4 h
AUC(0-t) ([2]; male, Sprague Dawley, rat, 0.1 mg, 0.1 mg/knee intra-articular, read-out: AUC0-672): 1350 ng·h/mL
AUC0-inf ([2]; male, Sprague Dawley, rat, 0.1 mg, 0.1 mg/knee intra-articular, read-out: AUC0-inf): 1290 ng·h/mL
AUC(0-t) ([2]; male, Sprague Dawley, rat, 0.1 mg, 0.1 mg/knee intra-articular, summary from second six animals, read-out: AUC0-1344): 1330 ng·h/mL
Cmax [2, 7]: 34.3 ng/mL
AUC0-672 [2, 8]: 10600 ng·h/mL
AUC0-inf [2, 8]: 11800 ng·h/mL
Cmax [2, 8]: 71.6 ng/mL
AUC0-1344 ([2]; 1 mg/knee intra-articular, summary from second six animals, monohydrate): 11100 ng·h/mL
dehydration behaviour ([3]; room temperature, stream of nitrogen gas): undergo dehydration at room temperature
average release rate [4]: 0.54 %/hr
one-half dissolution time [4]: 66 h
SMILES: COc1ccc(COc2ccc(Cn3c(N)nc4cc(-c5cnn(C)c5)cnc43)cc2OC)cc1 [Form 1 Compound, 3-(3-methoxy-4-((4-methoxybenzyl)oxy)benzyl)-6-(1-methyl-1H-pyrazol-4-yl)-3H-imidazo[4,5-b]pyridin-2-amine monohydrate, reference compound]
knee concentration of compound (in words) ([1]; monohydrate): below the limit of quantification in the majority of animals
